For assay [1], the target named is T1, recombinant NPM1 C-terminal domain (residues 240-294) (Homo sapiens, UniProt P06748).
T1 construct: made in house; host or cells: NiCo21(DE3) E. coli
The experiment in a line: In vitro NPM1 C-terminal domain labeling (Western). In kind it is biochemical. The text has this: NPM1 Construct design: NPM1 residues 240-294 corresponding to the C-terminal DNA binding domain were fused to a combined 6×His-maltose binding protein (MBP) solubility tag on the N-terminus. An HRV 3C protease cleavage sequence (LEVLFQ/GP) was placed between the tags and NPM1 sequence and upon cleavage the remaining GP sequence corresponds to the NPM1 240-241 residues resulting in a natural peptide sequence without additional residues.
In vitro NPM1 C-terminal domain labeling and characterization: Labeling of recombinant NPM1 with the pyridinium salt 2b was performed with the following conditions: 10 μM NPM1 was treated with DMSO or 100 μM pyridinium salt 2b (2% DMSO) in 50 mM HEPES pH 7.5, 150 mM NaCl, 1.5 mM MgCl2, and 100 μM glutathione (GSH). Samples were irradiated at 450 nm (Kessil PR160L-440) at 100% intensity for 15 minutes at room temperature or 50° C. The reaction mixture was quenched with the addition of 4X LDS buffer (Invitrogen) containing 10 mM DTT (Pierce) and boiled for 10 minutes before resolving proteins on 4-12% Bis-Tris NuPAGE gels (Invitrogen), transferred onto a Trans-Blot Turbo Mini 0.2 μm nitrocellulose membrane (BioRad), blocked with 5% BSA in tris-buffered saline with Tween-20 (TBST), and incubated with HRP-linked anti-biotin (Cell Signaling Technology, #7075).

Another assay deals with T2, PARP1 (Homo sapiens, UniProt P09874).
T2 construct: endogenous in cells; host or cells: HEK293T
As to the kind of experiment: In-situ labeling and enrichment of PARP1 in HEK293T cells (MS-MS, Western). It is filed as cell-based. The protocol:
Cell culture and in-situ tryptophan probe treatment: Cell lines were cultured at 37° C. with 5% C02. Human embryonic kidney 293 cells expressing a mutant version of the SV40 large T antigen (HEKT293T cells) were grown in Dulbecco's Modified Eagle Medium (DMEM, Gibco) supplemented with 10% fetal bovine serum and 1% penicillin/streptomycin. For in-situ labeling, cells were grown to 90% confluence, washed with Dulbecco's phosphate buffered saline (DPBS), treated with 100x stocks of the tryptophan probes (the pyridinium salts) in OptiMem (GibCo) to generate final concentrations (0 μM, 1 μM, 10 μM, and 100 μM) in 1% dimethylsulfoxide (DMSO). Cells were incubated for 1 hour at 37° C. with 5% C02 followed by photo-activation at the respective wavelengths for 20 minutes at 4° C. Cells were harvested with a cell scraper, washed 3× with DPBS, and pellets were stored at −80° C. until further use. […]
In-situ tryptophan probe sample processing for peptide-level characterization: Cell pellets were lysed via sonication (QSonica) at 50% amplitude, 2 seconds ON, 3 seconds OFF, 30 seconds in 40 mM HEPES pH 7.5 (4-(2-hydroxyethyl)-1-piperazineethanesulfonic acid), 1.5 mM magnesium chloride (MgCl2), 1% Sodium dodecyl sulfate (SDS), 0.8% NP-40 (also known as nonyl phenoxypolyethoxylethanol), and 1x protease inhibitors (Thermo). Protein concentration was determined by BCA (Pierce). […]

The structures appear in SMILES notation. Structures can show the parent of a compound that is named as a salt.

T1 sequence (P06748 240-294): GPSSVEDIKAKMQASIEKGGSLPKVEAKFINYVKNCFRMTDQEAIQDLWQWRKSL
T2 sequence (P09874 whole entry): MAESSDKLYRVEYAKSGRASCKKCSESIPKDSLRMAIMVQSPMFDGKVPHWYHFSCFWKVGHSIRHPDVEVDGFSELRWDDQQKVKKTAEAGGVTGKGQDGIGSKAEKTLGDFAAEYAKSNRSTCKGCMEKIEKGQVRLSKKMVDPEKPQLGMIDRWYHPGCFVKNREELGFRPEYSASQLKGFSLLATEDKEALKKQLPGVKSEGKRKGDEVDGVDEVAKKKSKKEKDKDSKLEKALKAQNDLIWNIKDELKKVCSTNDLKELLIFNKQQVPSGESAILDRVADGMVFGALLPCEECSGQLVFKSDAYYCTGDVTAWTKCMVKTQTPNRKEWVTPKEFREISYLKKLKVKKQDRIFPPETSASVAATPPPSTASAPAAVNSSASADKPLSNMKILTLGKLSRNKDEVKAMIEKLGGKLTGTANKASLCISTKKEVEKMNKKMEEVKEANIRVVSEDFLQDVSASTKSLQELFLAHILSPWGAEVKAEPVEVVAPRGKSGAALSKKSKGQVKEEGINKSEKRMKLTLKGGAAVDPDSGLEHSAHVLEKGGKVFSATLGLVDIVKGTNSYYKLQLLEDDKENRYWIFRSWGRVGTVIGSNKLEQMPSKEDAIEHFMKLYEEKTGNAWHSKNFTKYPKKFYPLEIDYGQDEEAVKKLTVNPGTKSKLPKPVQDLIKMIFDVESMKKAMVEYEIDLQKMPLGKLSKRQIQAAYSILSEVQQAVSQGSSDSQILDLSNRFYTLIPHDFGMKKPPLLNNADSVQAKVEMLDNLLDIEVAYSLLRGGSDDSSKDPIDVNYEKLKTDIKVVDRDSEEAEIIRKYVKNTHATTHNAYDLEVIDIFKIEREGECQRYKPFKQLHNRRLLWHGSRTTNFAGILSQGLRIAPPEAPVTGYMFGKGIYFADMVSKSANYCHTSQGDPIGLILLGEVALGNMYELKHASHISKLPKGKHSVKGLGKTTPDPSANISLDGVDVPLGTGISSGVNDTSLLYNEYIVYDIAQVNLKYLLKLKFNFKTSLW

For the molecule `COc1ccc2cc(-c3cc(C)[n+](N(C)C(=O)OCCCCC[C@H]4SC[C@H]5NC(=O)N[C@H]54)c(C)c3)ccc2c1` (stereo in doubt) [Pyridinium salt 2b, 4-(6-methoxynaphthalen-2-yl)-2,6-dimethyl-1-(methyl(((5-((3aR,4R,6aS)-2-oxohexahydro-1H-thieno[3,4-d]imidazol-4-yl)pentyl)oxy)carbonyl)amino)pyridin-1-ium tetrafluoroborate], the “labeling of the construct (Western analysis)” value in assay [1] (10 μM NPM1, 100 μM probe, 100 μM glutathione, about 440 nm, about 15 minutes) is “photo-dependent labeling”. Besides, the “temperature dependence of labeling” value in assay [1] (labeling at about 50° C. versus room temperature) is on record as “higher level of labeling”.

On to `COc1ccc2cc(-c3cc(C)[n+](N(C)C(=O)OCCCCCCN=[N+]=[N-])c(C)c3)ccc2c1` [Pyridinium salt 2d, 1-((((6-azidohexyl)oxy)carbonyl)(methyl)amino)-4-(6-methoxynaphthalen-2-yl)-2,6-dimethylpyridin-1-ium tetrafluoroborate], for which the “modified and dose-dependently enriched tryptophan residues” value on PARP1 (chemoproteomic profiling, HEK293T cells) was “Trp79 and Trp318”. Also, the “PARP1 in enriched protein mixture (Western analysis)” value at PARP1 (cultures irradiated with blue light in the presence of probe, protein-level enrichment) is listed as “found to contain both proteins”.

Values taken from patent US20240262844A1, “PYRIDINIUM SALTS AND METHODS OF USE” (UNIVERSITY OF WYOMING, priority 2023, published 2024).
